Some test systems named below: HCT-15; KM12; COLO 205; 786-0; SF-268; HOP-62; UO-31; NCI-H522; SK-OV-3; SN12C; CCRF-CEM; SK-MEL-28; RPMI-8226; TK-10; HOP-92; OVCAR-4; OVCAR-5; U-251; SK-MEL-2.
Assay in all cases: NCI-60 cell line screen, 48 h

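96-well plates; 48 h exposure; 5 concentrations. Endpoints by linear interpolation between flanking doses. Not reached: highest tested concentration assigned. Here, GI50 denotes the concentration required for 50% inhibition of growth.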 Activity calls are given as the source filed them. No stated cut-off is given here; in the data, active = GI50 up to about 1.1 µM and inactive = higher. A value given as a limit tells only on which side of the number the result lay.

Consider `COc1ccc(/C=C2\CN(C)CC3C2=NN(c2ccccc2)C3c2ccc(OC)cc2)cc1` (centres undefined), for which the GI50 with HCT-15 is over 100 µM; in the assay with KM12 it was > 100 µM (inactive); in the assay with COLO 205, > 100 µM (inactive); in the assay on 786-0, 27.7 µM (inactive); with SF-268, > 100 µM (inactive); with HOP-62, 38 µM (inactive). The GI50 with UO-31 was > 100 µM (inactive); in the assay with NCI-H522 it was 72.9 µM (inactive); in the assay with SK-OV-3, 16.6 µM (inactive); with SN12C it was > 100 µM (inactive); in the assay with CCRF-CEM it was > 100 µM (inactive); with SK-MEL-28 it was > 100 µM (inactive). Further, the GI50 was > 100 µM (inactive) with RPMI-8226; 26.1 µM (inactive) in the assay on TK-10; 28 µM (inactive) in the assay with HOP-92; > 100 µM (inactive) with OVCAR-4; > 100 µM (inactive) in the assay with OVCAR-5.

For the compound `COc1ccc(-c2oc3c(OC)c(OC)c(OC)c(O)c3c(=O)c2OC)cc1O`, the GI50 in the assay with HCT-15 is 0.35 µM; with KM12, 0.556 µM (active); in the assay on COLO 205, 11.1 µM (inactive); with 786-0, 0.446 µM (active); in the assay on SF-268, 0.0859 µM (active); in the assay on U-251, 0.242 µM (active). The GI50 is 0.403 µM (active) with HOP-62; 0.082 µM (active) in the assay on UO-31; < 0.01 µM (active) with NCI-H522; 0.139 µM (active) in the assay on SK-OV-3; 0.0641 µM (active) with SN12C; 0.0135 µM (active) with CCRF-CEM. Further, the GI50 with SK-MEL-28 was < 0.01 µM (active); with RPMI-8226, 0.121 µM (active); in the assay with TK-10 it was 2.42 µM (inactive); in the assay with HOP-92, < 0.01 µM (active); in the assay on OVCAR-4, 9.23 µM (inactive); in the assay on SK-MEL-2, 0.0546 µM (active). For the same compound, the GI50 in the assay on OVCAR-5 is 5.4 µM (inactive).

On to `CC1=C(N2CC2)C(=O)c2nc3n(c2C1=O)CCC3O` (centres undefined), for which the GI50 in the assay on HCT-15 was 13.6 µM; in the assay with KM12, 0.233 µM (active); with COLO 205, 0.41 µM (active); in the assay on 786-0 it was 0.179 µM (active); in the assay on SF-268 it was 0.104 µM (active); with U-251 it was 0.157 µM (active). Besides, the GI50 with HOP-62 is 0.126 µM (active); with UO-31 it was 0.388 µM (active); in the assay on NCI-H522 it was 0.145 µM (active); in the assay on SK-OV-3, 0.249 µM (active); in the assay with SN12C, 0.508 µM (active); in the assay on CCRF-CEM, 1.36 µM (inactive). Besides, the GI50 in the assay with SK-MEL-28 is 0.252 µM (active); in the assay on RPMI-8226, 0.472 µM (active); with TK-10, 0.09 µM (active); with HOP-92, 2.23 µM (inactive); in the assay on OVCAR-4, 0.0662 µM (active); in the assay on SK-MEL-2, 0.7 µM (active). Also, the GI50 in the assay on OVCAR-5 was 0.423 µM (active).

For `COc1cc(/C=N/N=C(\N)NO)c(Cl)cc1O`, the GI50 with HCT-15 was 46.5 µM; in the assay on KM12, 45.3 µM (inactive); with COLO 205 it was 38.2 µM (inactive); in the assay with 786-0, 46.6 µM (inactive); with SF-268 it was 85.1 µM (inactive); in the assay on U-251, > 100 µM (inactive). Also, the GI50 is 94 µM (inactive) with UO-31; 31.4 µM (inactive) with NCI-H522; 85.9 µM (inactive) in the assay on SK-OV-3; 58.2 µM (inactive) with SN12C; > 100 µM (inactive) with CCRF-CEM; 38.5 µM (inactive) in the assay with SK-MEL-28. Also, the GI50 in the assay on RPMI-8226 was > 100 µM (inactive); in the assay with HOP-92 it was 4.97 µM (inactive); with OVCAR-4 it was 43.8 µM (inactive); in the assay on SK-MEL-2, 71.6 µM (inactive); in the assay with OVCAR-5, 46.7 µM (inactive).

Consider `O=C1CCC[C@]2(CCCC(=O)N2)C1`, for which the GI50 in the assay with HCT-15 is over 100 µM; with KM12 it was > 100 µM (inactive); with COLO 205 it was > 100 µM (inactive); in the assay with 786-0, > 100 µM (inactive); in the assay on SF-268 it was > 100 µM (inactive); with U-251, > 100 µM (inactive). Moreover, the GI50 with HOP-62, in the assay on UO-31, with NCI-H522, in the assay on SK-OV-3, in the assay with SN12C and with CCRF-CEM was > 100 µM (inactive) in each case. The GI50 with SK-MEL-28, in the assay with RPMI-8226, in the assay on TK-10, in the assay on HOP-92, with OVCAR-4 and in the assay with SK-MEL-2 was > 100 µM (inactive) in each case. Also, in the assay with OVCAR-5, the GI50 was > 100 µM (inactive).

On to `O=C1NC(=S)NC(=O)C1=Cc1ccc([N+](=O)[O-])o1`, for which the GI50 is 17 µM in the assay on HCT-15; 46.6 µM (inactive) in the assay with KM12; 20.2 µM (inactive) in the assay on COLO 205; 19.3 µM (inactive) with 786-0; 39.8 µM (inactive) in the assay on SF-268; > 100 µM (inactive) in the assay on U-251. In addition, the GI50 with HOP-62 is > 100 µM (inactive); with UO-31, 39.2 µM (inactive); in the assay on NCI-H522, 19.9 µM (inactive); in the assay with SK-OV-3, > 100 µM (inactive); in the assay with SN12C it was 16.3 µM (inactive); in the assay on CCRF-CEM, 23.9 µM (inactive). The GI50 was 25 µM (inactive) in the assay on SK-MEL-28; 20.3 µM (inactive) in the assay with RPMI-8226; 61 µM (inactive) in the assay on TK-10; 20.7 µM (inactive) with HOP-92; 17.3 µM (inactive) in the assay on OVCAR-4; 46.9 µM (inactive) in the assay on SK-MEL-2. Also, the GI50 in the assay on OVCAR-5 is 20.3 µM (inactive).

For the compound `c1cc(N(CCn2cccn2)CCn2cccn2)cc(N(CCn2cccn2)CCn2cccn2)c1`, the GI50 in the assay on HCT-15 is over 100 µM; in the assay with KM12 it was > 100 µM (inactive); with COLO 205, > 100 µM (inactive); in the assay on 786-0, > 100 µM (inactive); with SF-268 it was > 100 µM (inactive); in the assay on U-251 it was > 100 µM (inactive). For the same compound, the GI50 with HOP-62, in the assay on UO-31, with NCI-H522, with SK-OV-3, in the assay with SN12C and in the assay with CCRF-CEM was > 100 µM (inactive) each time. For the same compound, the GI50 in the assay with SK-MEL-28, in the assay on RPMI-8226, in the assay on TK-10, in the assay with HOP-92, with OVCAR-4 and with SK-MEL-2 was > 100 µM (inactive) throughout.

Regarding `C/C(=C\Cc1cc(O)ccc1O)CCc1c(C)cc(O)c(C=O)c1C` [PANICEIN B3], the GI50 in the assay with HCT-15 was 27.4 µM; in the assay on KM12, 32.3 µM (inactive); with COLO 205, 17.7 µM (inactive); in the assay with 786-0 it was 25.5 µM (inactive); in the assay with SF-268, 15.8 µM (inactive); in the assay on U-251, 19.5 µM (inactive). The GI50 with UO-31 is 23.5 µM (inactive); in the assay on NCI-H522, 10.1 µM (inactive); in the assay with SK-OV-3, 32.7 µM (inactive); in the assay on SN12C, 28.2 µM (inactive); with SK-MEL-28, 24 µM (inactive); with RPMI-8226, > 100 µM (inactive). In addition, the GI50 in the assay on TK-10 is 34.8 µM (inactive); in the assay on HOP-92 it was 18.9 µM (inactive); with OVCAR-4, 26.4 µM (inactive); with SK-MEL-2, 23 µM (inactive).

As to `O=C(/C=C/c1ccc(Cl)c(Cl)c1)c1ccccc1Cl`, the GI50 with HCT-15 was 5.45 µM; in the assay on KM12, 8.13 µM (inactive); with COLO 205 it was 16.1 µM (inactive); with 786-0 it was 5.32 µM (inactive); in the assay on SF-268, 6.64 µM (inactive); in the assay with U-251 it was 5.64 µM (inactive). Further, the GI50 is 18.7 µM (inactive) in the assay on HOP-62; 14.5 µM (inactive) with UO-31; 11.8 µM (inactive) in the assay on NCI-H522; 24.4 µM (inactive) with SK-OV-3; 16.6 µM (inactive) in the assay on SN12C; 6.67 µM (inactive) in the assay on CCRF-CEM. Besides, the GI50 in the assay on SK-MEL-28 is 8.95 µM (inactive); with RPMI-8226 it was 8.49 µM (inactive); with TK-10, 21.6 µM (inactive); with HOP-92, 16.7 µM (inactive); in the assay with OVCAR-4 it was 14.1 µM (inactive); with OVCAR-5, 16.8 µM (inactive).

Take `CC1(C)CC(N2CCN(C3CC(C)(C)NC(C)(C)C3)CC2)CC(C)(C)N1`: the GI50 was over 100 µM with HCT-15; > 100 µM (inactive) in the assay on KM12; > 100 µM (inactive) in the assay on 786-0; > 100 µM (inactive) in the assay on SF-268; > 100 µM (inactive) with U-251; > 100 µM (inactive) in the assay on HOP-62. The GI50 with UO-31, with NCI-H522, in the assay on SK-OV-3, in the assay with SN12C, with CCRF-CEM and with SK-MEL-28 was > 100 µM (inactive) throughout. Besides, the GI50 with RPMI-8226, with TK-10, with HOP-92, with OVCAR-4 and in the assay on OVCAR-5 was > 100 µM (inactive) throughout.

Consider `Oc1ccncc1-c1cnccc1O`, for which the GI50 is over 100 µM with HCT-15; > 100 µM (inactive) in the assay on KM12; > 100 µM (inactive) with COLO 205; > 100 µM (inactive) with 786-0; > 100 µM (inactive) in the assay on U-251; > 100 µM (inactive) in the assay on UO-31. The GI50 with NCI-H522, in the assay with SK-OV-3, in the assay on SN12C, in the assay with CCRF-CEM, in the assay with SK-MEL-28 and in the assay with RPMI-8226 was > 100 µM (inactive) in each case. The GI50 in the assay on TK-10 and with HOP-92 was > 100 µM (inactive) in each case.

With `COc1cc2c3cc1Oc1c(OC)c(OC)cc4c1[C@@H](Cc1ccc(O)c(c1)Oc1ccc(cc1)C[C@@H]3N(C)CC2)N(C)CC4.c1ccccc1`, the GI50 in the assay on HCT-15 was 12.3 µM; with KM12, 10.9 µM (inactive); in the assay on 786-0 it was 12.8 µM (inactive); in the assay with SF-268, 23.2 µM (inactive); in the assay on U-251, 10.1 µM (inactive); in the assay with HOP-62 it was 18.1 µM (inactive). Besides, the GI50 was 15.7 µM (inactive) in the assay with UO-31; 7.55 µM (inactive) in the assay with NCI-H522; 18.7 µM (inactive) in the assay with SN12C; 17.5 µM (inactive) in the assay on CCRF-CEM; 15.3 µM (inactive) with SK-MEL-28; 16.3 µM (inactive) with RPMI-8226. In addition, the GI50 in the assay on TK-10 was 17.8 µM (inactive); in the assay on HOP-92, 8.28 µM (inactive); in the assay with SK-MEL-2, 16.9 µM (inactive); with OVCAR-5, 30.6 µM (inactive).

Values taken from ChEMBL document CHEMBL1201862, “PubChem BioAssay data set” (2004).
